# Test results: PubChem BioAssay (NCI)
# Where “and” joins values, the source holds several entries; their conditions need not be identical. Equal entries are not always repeated.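 All cell lines were grown in 96-well plates and treated with compound for 48 hours. Here, GI50 denotes the concentration required for 50% inhibition of growth. At the TGI there is no net growth.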
# What was measured:
# Experiment in all cases: NCI tumour cell line growth inhibition, 48 h
# A549 NSCLC = system: A549 NSCLC
# CCRF-CEM leukemia = system: CCRF-CEM leukemia
# K-562 leukemia = system: K-562 leukemia
# NCI-H522 lung = system: NCI-H522 lung
# OVCAR-3 ovarian = system: OVCAR-3 ovarian
# OVCAR-8 ovarian = system: OVCAR-8 ovarian
# SF-539 CNS = system: SF-539 CNS
# SK-MEL-5 melanoma = system: SK-MEL-5 melanoma
# SK-OV-3 ovarian = system: SK-OV-3 ovarian
# UACC-62 melanoma = system: UACC-62 melanoma
Compound,TGI (A549 NSCLC) [µM],TGI (CCRF-CEM leukemia) [µM],TGI (K-562 leukemia),TGI (NCI-H522 lung),TGI (OVCAR-3 ovarian) [µM],TGI (OVCAR-8 ovarian) [µM],TGI (SF-539 CNS) [µM],TGI (SK-MEL-5 melanoma),TGI (SK-OV-3 ovarian) [µM],TGI (UACC-62 melanoma) [µM],GI50 (A549 NSCLC) [µM],GI50 (CCRF-CEM leukemia) [µM],GI50 (K-562 leukemia) [µM],GI50 (NCI-H522 lung) [µM],GI50 (OVCAR-3 ovarian) [µM],GI50 (OVCAR-8 ovarian) [µM],GI50 (SF-539 CNS) [µM],GI50 (SK-MEL-5 melanoma) [µM],GI50 (SK-OV-3 ovarian) [µM],GI50 (UACC-62 melanoma) [µM]
CCOC(=O)C1=C(C(=O)c2ccc(C)cc2)C(c2cccc([N+](=O)[O-])c2)C(C(=O)c2ccc(C)cc2)=C(C(=O)OCC)N1,66.1,8.57,57.9 µM,36.2 µM,28.8,45,26.7,33.1 µM,27.9,33.5,–,–,–,–,–,–,–,–,–,–
O=C1c2ccc([N+](=O)[O-])cc2-c2c1c1ccccc1c(=O)n2CCCNCCCNCCCn1c2c(c3ccc([N+](=O)[O-])cc3c1=O)C(=O)c1ccccc1-2,> 40.8,5.62,1.97 µM,32.3 µM,6.16,2.32,7,20.9 µM,19.2,4.85,2.69,1.77,0.539,7.1,2.2,0.31,1.96,3.07,4.79,1.71
O=C(c1ccccc1)C1CCCCN1C(=O)c1ccccc1 (stereo not given),> 100,> 100,> 100 µM,> 100 µM,> 100,> 100,> 100,> 100 µM,> 100,> 100,–,–,–,–,–,–,–,–,–,–
CCOC(=O)/C(O)=C/c1cc(OC)cc(=O)o1,> 100,> 100,> 100 µM,> 100 µM,> 100,> 100,> 100,> 100 µM,> 100,> 100,–,–,–,–,–,–,–,–,–,–
OCCCOC(c1ccccc1)(c1ccccc1)c1ccccc1,> 100,> 100,> 100 µM,> 100 µM,> 100,> 100,> 100,> 100 µM,> 100,> 100,–,–,–,–,–,–,–,–,–,–
Oc1cc(O)c(Oc2cccc(O)c2O)c(O)c1,> 100,> 100,> 100 µM,> 100 µM,> 100,> 100,> 100,38.7 µM,> 100,> 100,–,–,–,–,–,–,–,–,–,–
Oc1ccc(C(c2ccc(O)cc2)c2ccc(Cl)cn2)cc1,> 100,> 100,> 100 µM,69.8 µM,0.0769,1.16,> 100,34.5 µM,> 100,17.8,1.21,14.9,13.5,2.63,0.0266,0.0346,13.7,15.6,18.6,1.59
CCOC(=O)C1(Br)C(c2ccccc2)NC(=O)NC1(C)Br (stereo not given),> 100,99.8,> 94.5 µM,> 53.2 µM,> 100,> 100,> 100,> 100 µM,> 100,> 100,–,–,–,–,–,–,> 100,–,–,–
CCCn1c(SC)nc(COC(=O)NC)c1COC(=O)NC,> 100,> 100,> 100 µM,> 100 µM,> 100,> 100,> 100,> 100 µM,> 100,> 100,–,–,–,–,–,–,–,–,–,–
C1C[OH+]CC[OH+]CCNCC[OH+]CC[OH+]CCN1.[Cl-].[Pt+4],> 100,> 100,> 100 µM,> 100 µM,> 100,> 100,> 100,> 100 µM,> 100,> 100,> 100,30.1,> 100,26.3,> 100,> 100,> 100,> 100,> 100,91.9
O=[N+]([O-])c1ccc(S(=O)Cc2ccccc2)c([N+](=O)[O-])c1 (stereo not given),36.3,3,6.65 µM,2.94 µM,3.24,10.5,13.8,21.1 µM,30,8.89,16.3,0.739,2.56,1.32,1.84,3.02,3.64,9.08,16.4,2.55
COc1ccccc1/C=C/[N+](=O)[O-],10.4,6.47,7.37 µM,2.47 µM,4.67,10.4,4.32,4.03 µM,17.7,4.13,3,2.16,1.56,1.08,2.23,3.1,2.16,2,5.81,1.95
C=C1SC(=Nc2c(C)cc(C)cc2C)N(C(=O)c2sc3ccccc3c2Cl)C12CCCCC2,> 100,> 100,> 100 µM,> 100 µM,> 100,> 100,> 100,> 100 µM,> 100,> 100,> 100,62.4,54.5,28.6,88.7,> 100,> 100,> 100,> 100,78.5
CC1CCP(=O)(c2ccccc2)c2ccccc21 (stereo not given),> 100,> 100,62.9 µM,> 100 µM,> 100,> 100,> 100,> 100 µM,> 100,> 100,–,–,–,–,–,–,–,–,–,–
CC(=O)NNc1nc(C)c(C(=O)NNC(=O)C(=O)Nc2c(C)cccc2C)s1,> 100,81.7,> 100 µM,32.8 µM,65.3,80.1,> 100,> 100 µM,> 100,> 100,–,–,–,–,–,–,–,–,–,–
CCc1n(Cc2ccc3ccccc3n2)cc[n+]1Cc1ccc2ccccc2n1,> 100,15.4,16.1 µM,1.49 µM,6.66,17.6,15.8,1.02 µM,15.1,3.05,5.27,0.388,0.493,0.0837,0.0878,1.63,0.681,0.0653,1.39,0.186
O=C(/C=C/C12c3ccccc3C(c3ccccc31)C1C(=O)N(c3ccccc3)C(=O)C12)c1ccccc1 (stereo not given),> 100,> 100,> 100 µM,4.45 µM,7.09,> 100,5.14,6.21 µM,> 100,4.94,2.58,1.45,1.39,1.59,2.22,1.79,2.09,2.29,28.3,1.66

Compound,TGI (A549 NSCLC) [µM],TGI (CCRF-CEM leukemia) [µM],TGI (K-562 leukemia),TGI (NCI-H522 lung),TGI (OVCAR-3 ovarian) [µM],TGI (OVCAR-8 ovarian) [µM],TGI (SF-539 CNS) [µM],TGI (SK-MEL-5 melanoma),TGI (SK-OV-3 ovarian) [µM],TGI (UACC-62 melanoma) [µM],GI50 (A549 NSCLC) [µM],GI50 (CCRF-CEM leukemia) [µM],GI50 (K-562 leukemia) [µM],GI50 (NCI-H522 lung) [µM],GI50 (OVCAR-3 ovarian) [µM],GI50 (OVCAR-8 ovarian) [µM],GI50 (SF-539 CNS) [µM],GI50 (SK-MEL-5 melanoma) [µM],GI50 (SK-OV-3 ovarian) [µM],GI50 (UACC-62 melanoma) [µM]
COc1ccc(-c2oc3c(OC)c(OC)c(OC)c(O)c3c(=O)c2OC)cc1OC,> 100,> 71.3,> 54.3 µM,44.6 µM,> 93.6,> 100,> 71.4,41.7 µM,63.8,> 92,–,–,–,–,–,–,–,–,–,–
CC1OC(OCC2OC(Oc3c(-c4ccc(O)cc4)oc4cc(O)cc(O)c4c3=O)C(OC3OC(C)C(O)C(O)C3O)C(O)C2O)C(O)C(O)C1O (stereo not given),> 100,> 83.5,> 31.6 µM,> 100 µM,> 100,> 100,> 100,> 100 µM,> 100,> 100,–,–,–,–,–,–,–,–,–,–
O=C1C(c2c[nH]c3ccccc23)=C(c2c[nH]c3ccccc23)C(=O)N1O,> 25,> 25,> 25 µM,> 25 µM,> 25,> 25,> 25,> 25 µM,> 25,> 25,> 25,> 25,> 25,> 25,> 25,> 25,> 25,> 25,> 25,24.6
CCCNCCCC(NC(C)=O)C(=O)NCc1ccccc1 (stereo not given),> 100,> 100,> 100 µM,> 100 µM,> 100,> 100,> 100,> 100 µM,> 100,> 100,–,–,–,–,–,–,–,–,–,–
O=c1[nH]c(=O)n([C@@H]2C[C@H](CO)[C@H](O)C2)cc1/C=C/Br,> 100,> 100,> 100 µM,> 100 µM,> 100,> 100,> 100,> 100 µM,> 100,> 100,–,–,–,–,–,–,–,–,–,–
CC1(C)CC[C@H](Nc2ncc(C(F)(F)F)c(-c3c[nH]c4c(P(C)(C)=O)c(C#N)ccc34)n2)CN1,35.4,> 32,> 45.9 µM,14.4 µM,4.29,> 50.2,4.73,2.27 µM,5.46,2.19,0.184,0.143,0.0219,–,< 0.0214,0.469,0.245,0.0666,1.07,< 0.01
CCCCS(=O)CCC(N)C(=O)O (stereo not given),> 100,> 100,> 100 µM,> 100 µM,> 100,> 100,> 100,> 100 µM,> 100,> 100,–,–,–,–,–,–,–,–,–,–
Clc1ccc(Cc2nc3ccccc3s2)c(Cl)c1,42.1,22.7,36.2 µM,30.9 µM,33,38.4,12,32.6 µM,43.3,28.9,–,–,–,–,–,–,–,–,–,–
C=C(CCCCCCCCC)CC(=O)SCCNC(=O)CCNC(=O)C(O)C(C)(C)COP(=O)(O)OP(=O)(O)OCC1OC(n2cnc3c(N)ncnc32)C(O)C1OP(=O)(O)O (stereo not given),> 100,> 100,> 31.6 µM,> 100 µM,> 100,> 100,> 85.6,52.2 µM,> 100,46.1,–,–,–,–,–,–,–,–,–,–
CCCc1c(CC)c(=N)c2ccccc2n1C,> 100,> 100,> 100 µM,> 100 µM,> 100,> 100,> 100,> 100 µM,> 100,> 100,> 100,> 100,51.1,65.6,59.9,48.9,> 100,24.9,> 100,66.3
COc1cc(/C=C2\CCC/C(=C\c3cc(OC)c(O)c(OC)c3)C2=O)cc(OC)c1O,–,17.8,75 µM and > 100 µM,3.5 µM and 2.85 µM,–,75,> 100,75 µM and 19.6 µM,> 100,5.2,3.14,–,2.26,1.24,3.47,–,–,2.83,–,–
O=C(Nc1cccc([N+](=O)[O-])c1)C(=O)C(C(=O)c1ccccc1-c1ccccc1)C1OC(=O)c2ccccc21 (stereo not given),82.7,99,> 100 µM,26.2 µM,36.4,71,28.4,30.7 µM,> 100,45.7,–,–,–,–,–,–,–,–,–,–
O=C(Nc1cccs1)c1c(O)[nH]c(=S)[nH]c1=O,> 100,> 100,> 100 µM,> 100 µM,> 100,> 100,> 100,> 100 µM,> 100,> 100,–,–,–,–,–,–,–,–,–,–
C/C(=N\O)c1cccc(Nc2cc(-n3ccnn3)c3ccccc3n2)c1,43.2,31.3,36.5 µM,28.9 µM,55.8,41,44,26.2 µM,> 100,25.4,16.9,11.7,14.9,13.2,20.2,17.5,19,13.4,30.6,12.8
COc1ccc(-c2cc(=O)c3c(C)cc(C)nc3[nH]2)cc1,> 100,43.2,> 100 µM,> 100 µM,> 100,> 100,> 100,33.1 µM,> 100,46.6,–,–,–,–,32.7,–,–,17.6,–,–
CCCCC1CC(c2cccc([N+](=O)[O-])c2)=NO1 (stereo not given),> 100,> 100,> 100 µM,> 100 µM,> 100,> 100,> 100,> 100 µM,> 100,> 100,–,–,–,–,–,–,–,–,–,–
